Laboratory results: patent US5508311A, “Aliphatic propargylamines as selective MAO-B inhibitors and as neuroprotective agents” (University of Saskatchewan, priority 1993, dated 1996)
Where a name gives a salt, the structure may show the parent alone. Read-outs that look alike come from different tables or passages of the source.

Experiments:
[1] = mouse, in vivo
From the text: The acute toxicity of these compounds is quite low. […]. The aliphatic side-chains of these aliphatic propargyl compounds are similar to those that exist in endogenous lipids and fatty acids and such aliphatic chains are readily oxidized in vivo. […]

monoamine oxidase = assay: Inhibition of rat liver monoamine oxidase deamination of dopamine (DA, mixed-type MAO A and B substrate) in vitro; assay type: biochemical; settings: substrate DA (5 × 10^-4 M), average of at least 3 independent experiments
Experimental: (§1) The aliphatic propargylamine inhibitors (from 1×10^-10 M to 1×10^-4 M) were preincubated with the MAO for 20 min. at ambient room temperature and then the residual enzyme activities were determined by addition of the substrates, followed by further incubation at 37° C. for 30 min. The enzymatic reactions were terminated by the addition of citric acid and the aldehyde products were extracted with toluene: ethyl acetate (1:1, v/v) and the radio-activities assessed in a scintillation counter.

[2] = reported; cited from earlier work
Parkinson's disease = settings: Deprenyl alone; cited from earlier work
dopamine neurons [3] = settings: animal study (Tatton); cited from earlier work
MAO-A [4] = target: T1, MAO-A (Mus musculus, UniProt Q64133); assay: in vivo; settings: ip, read-out: 5-HT ID50
T1 construct: MAO activities in the mouse brain after; from tissue
T1 sequence (Q64133 1-526): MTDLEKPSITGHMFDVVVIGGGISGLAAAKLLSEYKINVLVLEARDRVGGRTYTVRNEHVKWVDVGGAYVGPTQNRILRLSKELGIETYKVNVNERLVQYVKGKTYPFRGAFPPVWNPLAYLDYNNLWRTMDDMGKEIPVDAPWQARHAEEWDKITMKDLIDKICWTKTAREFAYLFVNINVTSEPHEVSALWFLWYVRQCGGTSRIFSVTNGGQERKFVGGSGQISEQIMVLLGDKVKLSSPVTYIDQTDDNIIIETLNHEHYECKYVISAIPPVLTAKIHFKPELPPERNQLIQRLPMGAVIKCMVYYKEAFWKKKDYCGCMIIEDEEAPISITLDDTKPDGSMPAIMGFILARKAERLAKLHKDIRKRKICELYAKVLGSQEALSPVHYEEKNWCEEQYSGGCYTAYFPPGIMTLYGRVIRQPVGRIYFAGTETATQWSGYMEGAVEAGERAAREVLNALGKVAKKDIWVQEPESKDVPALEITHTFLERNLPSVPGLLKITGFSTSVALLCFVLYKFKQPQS
Experimental: (§2) Albino Swiss mice were used in this study. The animals were injected intraperitoneally with different doses of the aliphatic propargylamines in 100 μL saline.
(§3) 0.5, 1, 2, 5, 10, 20, 50, 100 mg/Kg. Striata were dissected from the brai
(§4) two hours after i.p. administration of the drugs. MAOA and MAOB activitie
(§5) were determined immediately. The values were estimated from doseresponse

MAO-B [5] = target: T2, MAO-B (Mus musculus, UniProt Q8BW75); assay: in vivo; assay type: in vivo; settings: for ED50: read-out: PE ID50; for Ratio MAO-A/MAO-B: 120 min
T2 construct: MAO activities in the mouse brain after; from tissue
T2 sequence (Q8BW75 1-520): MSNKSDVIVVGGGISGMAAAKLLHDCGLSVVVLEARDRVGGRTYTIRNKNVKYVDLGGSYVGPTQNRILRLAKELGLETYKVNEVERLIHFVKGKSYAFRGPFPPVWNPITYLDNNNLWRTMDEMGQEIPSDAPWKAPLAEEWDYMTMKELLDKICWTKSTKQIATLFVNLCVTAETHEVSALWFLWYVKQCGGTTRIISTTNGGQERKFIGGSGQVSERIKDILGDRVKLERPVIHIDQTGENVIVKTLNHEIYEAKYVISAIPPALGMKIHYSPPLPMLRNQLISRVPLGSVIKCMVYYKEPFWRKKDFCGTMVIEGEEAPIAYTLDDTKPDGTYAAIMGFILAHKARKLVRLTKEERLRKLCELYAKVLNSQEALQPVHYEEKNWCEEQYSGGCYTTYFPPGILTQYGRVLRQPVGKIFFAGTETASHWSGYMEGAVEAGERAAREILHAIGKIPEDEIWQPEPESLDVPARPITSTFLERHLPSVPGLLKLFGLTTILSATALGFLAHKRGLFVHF
Experimental: as §2, §3, §4, §5

MAO-A [6] = target: T3, MAO-A (Rattus norvegicus, UniProt P21396); assay: biochemical; assay type: biochemical; settings: substrate 5-HT (5 × 10^-4 M); rat liver MAO, in vitro; average of at least 3 independent experiments
T3 sequence (P21396 1-526): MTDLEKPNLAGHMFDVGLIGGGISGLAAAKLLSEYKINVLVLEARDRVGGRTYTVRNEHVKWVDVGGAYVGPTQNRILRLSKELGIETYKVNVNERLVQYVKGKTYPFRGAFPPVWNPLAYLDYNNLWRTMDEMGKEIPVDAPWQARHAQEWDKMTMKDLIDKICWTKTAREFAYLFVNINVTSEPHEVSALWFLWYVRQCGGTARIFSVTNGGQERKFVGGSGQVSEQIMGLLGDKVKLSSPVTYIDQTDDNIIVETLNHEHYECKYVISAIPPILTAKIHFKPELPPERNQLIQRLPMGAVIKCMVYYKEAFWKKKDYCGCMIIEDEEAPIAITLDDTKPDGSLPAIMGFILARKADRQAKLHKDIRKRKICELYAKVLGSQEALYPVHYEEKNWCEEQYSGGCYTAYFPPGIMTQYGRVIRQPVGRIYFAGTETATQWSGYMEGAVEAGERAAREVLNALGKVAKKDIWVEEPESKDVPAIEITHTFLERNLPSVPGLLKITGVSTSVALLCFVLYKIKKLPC
Experimental: as §1

MAO-B [7] = target: T4, MAO-B (Rattus norvegicus, UniProt P19643); assay: biochemical; assay type: biochemical; settings: for IC50: read-out: PE IC50
T4 sequence (P19643 1-520): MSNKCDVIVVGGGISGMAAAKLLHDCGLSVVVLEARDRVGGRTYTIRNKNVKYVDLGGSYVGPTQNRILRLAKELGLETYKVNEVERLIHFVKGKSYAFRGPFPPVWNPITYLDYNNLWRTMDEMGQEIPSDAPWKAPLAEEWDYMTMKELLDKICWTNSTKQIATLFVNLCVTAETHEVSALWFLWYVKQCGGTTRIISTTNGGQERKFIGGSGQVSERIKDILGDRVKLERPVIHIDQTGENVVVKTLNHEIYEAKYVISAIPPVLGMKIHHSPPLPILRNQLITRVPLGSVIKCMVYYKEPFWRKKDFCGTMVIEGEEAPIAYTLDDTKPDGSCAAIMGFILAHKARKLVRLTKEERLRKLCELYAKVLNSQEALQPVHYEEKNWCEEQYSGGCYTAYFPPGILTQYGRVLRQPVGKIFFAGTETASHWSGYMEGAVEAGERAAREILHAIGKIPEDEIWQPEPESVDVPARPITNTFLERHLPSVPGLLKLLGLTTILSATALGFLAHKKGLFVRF
Experimental: as §1

MAO-B [8] = target: T2, MAO-B; assay: MAO-B activity in the mouse brain after oral administration (substrate PE); assay type: in vivo; settings: 2 hours; for ED50: mouse, oral, average of 5 animals per dose, estimated from dose response curves, read-out: Inhibition of MAO-B activity, dose response (ID50); for Relative activity PE: oral 10 mg/Kg, PE (1.9 × 10^-5 M), mean ± standard error, saline = 100
Experimental: (§6) Table 3 indicates the MAO activities in the mouse brain following oral administration of the aliphatic propargylamines.
(§7) of each compound. Striata were dissected from the brain two hours after
(§8) the administration of the drugs. MAOA and MAOB activities were determined
Striata were dissected from the brain two
hours after oral administration of the drugs. MAOB activities were then
determined immediately. The values were estimated from doseresponse

MAO-A [9] = target: T1, MAO-A; assay type: in vivo
Experimental: as §6, §7, §8

noradrenaline neurons = assay: Protection of noradrenaline neurons against DSP-4 induced neurotoxicity in the mouse brain; assay type: in vivo; settings: Experiment II, pretreatment 10 mg/Kg i.p., mean ± S.E.
Experimental: The analyses of DSP-4-induced neurotoxic effects were conducted in accordance with […] and Jonsson (Eur. J. Pharmacol. 103 (1984), 269-278), hereby incorporated by reference. Mice were pretreated with M-2-PP (10 mg/Kg) and 2-HxMP (10 mg/Kg) or saline as control via i.p. administration and one hour later challenged with a single i.p. dose of DSP-4 (DSP-4: […] One week after treatment noradrenaline content in the putamen of these mice was analyzed. The results which are shown in Table 5 are mean ± S.E. of five animals in each group.

dopamine neurons [10] = assay: Protection of dopamine neurons against MPTP-induced neurotoxicity in the mice brain; assay type: in vivo, mouse
From the text: Three days later, dopamine levels and dopamine uptake site densities (GBR bindings) were estimated.

[11] = human, in vivo; cited from earlier work
Solubility in water = settings: free base
[12] = ID50 i.p. in mice versus IC50 in vitro
[13] = mouse, ip, 2 hours after administration, […], estimated from dose response curves
[14] = 2 hours after administration, 5-HT 5 × 10^-4 M, estimated from dose response curves

SMILES: C#CCN(C)C(C)CC.Cl.O=C(O)C(=O)O (racemic) [Example 2-BuMP, N-(2-Butyl)-N-methylpropargylamine hydrochloride and oxalate]
- fatality after oral administration [1]: no fatality

SMILES: C#CCN(C)[C@H](C)Cc1ccccc1 [Deprenyl]
- IC50 (monoamine oxidase): 300 nM
- LD50 [2]: 445 mg/kg
- onset of disability in early, otherwise untreated Parkinson's disease (Parkinson's disease): can significantly delay the onset of disability
- protection of dopamine neurons after MPTP washed out (dopamine neurons [3]): shown to protect dopamine neurons even after the MPTP has been completely washed out of the tissues
- ED50 (MAO-A [4]; 2 h): 25 mg/kg

SMILES: C#CCN(C)CCCC.Cl [Example 1-BuMP, N-(1-Butyl)-N-methylpropargylamine hydrochloride]
- MAO-B ID50 (mg/Kg) / IC50 ([…] × 10^-6 M) (MAO-B [5]; [12]): 2 (mg/Kg)/(1 × 10^-6 M)
- inhibition of brain MAO-B activity in vivo (in words) (MAO-B [5]; mouse, i.p., two hours after treatment): more potent than the longer chain analogs at inhibiting brain MAO-B activity
- ED50 (MAO-B [5]; [13]): 2 mg/kg
- Ratio MAO-A/MAO-B (MAO-B [5]; ratio of ID50 values, i.p.): 50
- fatality after oral administration [1]: no fatality
- ED50 (MAO-A [4]; [14]): 100 mg/kg
- IC50 (MAO-A [6]): 100 µM
- Ratio MAO-A/MAO-B (MAO-B [7]; ratio of IC50 values, in vitro): 100
- IC50 (MAO-B [7]): 1000 nM
- ED50 (MAO-B [8]): 15 mg/kg
- Relative activity PE (MAO-B [8]): 67 ± 9%
- Relative activity 5-HT (MAO-A [9]; oral 10 mg/Kg, 2 hours, 5-HT (5 × 10^-4 M), mean ± standard error, saline = 100): 98 ± 5%

SMILES: C#CCN(C)C(C)CCCC.Cl (stereo not drawn) [Example 2-HxMP, N-(2-Hexyl)-N-methylpropargylamine hydrochloride]
- MAO-B ID50 (mg/Kg) / IC50 ([…] × 10^-6 M) (MAO-B [5]; [12]): 2 (mg/Kg)/(1 × 10^-6 M)
- ED50 (MAO-B [5]; [13]): 0.2 mg/kg
- Ratio MAO-A/MAO-B (MAO-B [5]; ratio of ID50 values, i.p.): 200
- Noradrenaline in putamen (noradrenaline neurons; DSP-4 50 mg/Kg, p < 0.01 vs DSP-4 (DSP-4 alone 56)): 84 ± 0.04%
- Noradrenaline in putamen (noradrenaline neurons; saline, no DSP-4): 104 ± 0.05%
- ED50 (MAO-A [4]; [14]): 40 mg/kg
- IC50 (MAO-A [6]): 100 µM
- Ratio MAO-A/MAO-B (MAO-B [7]; ratio of IC50 values, in vitro): 1000
- IC50 (MAO-B [7]): 100 nM
- ED50 (MAO-B [8]): 1 mg/kg

SMILES: C#CCN(C)CCCCC.O=C(O)C(=O)O [Example M-1-PP, N-(1-Pentyl)-N-methylpropargylamine oxalate]
- MAO-B ID50 (mg/Kg) / IC50 ([…] × 10^-6 M) (MAO-B [5]; mouse, in vivo, ip): 6.6
- inhibition of brain MAO-B activity in vivo (in words) (MAO-B [5]; mouse, in vivo, ip): more potent than the longer chain analogs at inhibiting brain MAO-B activity
- Ratio MAO-A/MAO-B (MAO-B [5]; mouse, in vivo, ip): 50
- ED50 (MAO-B [5]; mouse, ip, 2 h): 2 mg/kg
- fatality after oral administration [1]: no fatality
- Dopamine (dopamine neurons [10]; 2.0 mg/Kg + MPTP): 3.1 μg/gm
- Dopamine binding site (dopamine neurons [10]; 2.0 mg/Kg + MPTP): 221 pmol/mg
- Dopamine (dopamine neurons [10]; 10 mg/Kg + MPTP): 9.0 μg/gm
- Dopamine binding site (dopamine neurons [10]; 10 mg/Kg + MPTP): 320 pmol/mg
- ED50 (MAO-A [4]; 2 h): 100 mg/kg
- IC50 (MAO-A [6]): 100 µM
- Ratio MAO-A/MAO-B (MAO-B [7]; rat, liver mitochondrial membranes): 200
- IC50 (MAO-B [7]): 400 nM
- Relative activity PE (MAO-B [8]): 72 ± 17%
- Relative activity 5-HT (MAO-A [9]; mouse, in vivo, po, 10 mg/kg): 97 ± 13

SMILES: CC(C)NNC(=O)c1ccncc1 [Iproniazid]
- adverse effects leading to withdrawal [11]: hepatic toxicity and occasional hypertensive crises

SMILES: C#CCNC [MP, N-Methylpropargylamine-HCl]
- DA IC50 (monoamine oxidase): inactive
- solubility in water (Solubility in water): infinite
- 5-HT IC50 (MAO-A [6]): inactive
- PE IC50 (MAO-B [7]): inactive
